Measurements as given in US9018194B2 (Nibon University, priority 2011, dated 2015).

What was measured:
[1] = biological target: T1, human VDR (Homo sapiens, UniProt P11473); experiment: VDR transcription induction activity, luciferase reporter assay (mouse osteopontin VDRE) in HEK293 cells transfected with human VDR; assay type: cell-based; set-up: expressed in transfected cells; host or cells: HEK293 cells; settings: for efficacy of VDR transcription induction, % of that of the natural hormone / concentration at which the highest transcription activity was shown: HEK293 cells; for efficacy of VDR transcription induction, % of that of the natural hormone: Sppx3-tk-LUC reporter, relative to 1,25(OH)2D3; for concentration at which the highest transcription activity was shown: 10^-8 M was the lowest concentration used
T1 sequence (P11473 1-427): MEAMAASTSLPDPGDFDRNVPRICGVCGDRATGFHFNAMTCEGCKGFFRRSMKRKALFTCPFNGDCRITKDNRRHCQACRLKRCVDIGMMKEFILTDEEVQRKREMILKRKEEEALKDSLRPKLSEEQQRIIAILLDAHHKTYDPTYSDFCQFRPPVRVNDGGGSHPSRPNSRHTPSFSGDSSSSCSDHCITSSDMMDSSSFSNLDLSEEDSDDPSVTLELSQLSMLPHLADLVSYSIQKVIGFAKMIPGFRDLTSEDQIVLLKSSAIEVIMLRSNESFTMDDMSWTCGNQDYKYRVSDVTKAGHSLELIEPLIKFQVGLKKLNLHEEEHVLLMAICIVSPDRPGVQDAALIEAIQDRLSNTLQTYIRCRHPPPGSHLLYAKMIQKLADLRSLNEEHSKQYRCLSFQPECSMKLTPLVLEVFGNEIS
Method: Briefly, HEK cells were transfected with human VDR expression vector (pCMX-VDR) and expression vectors for VDR responsive luciferase (Sppx3-tk-LUC) and β-galactosidase by the calcium phosphate method. Eight hours later, compounds were added to the cells. After culturing for 16-24 hr, cells were harvested, and the activities of luciferase and β-galactosidase were measured. Luciferase activity values were corrected with β-galactosidase activity values.

[2] = biological target: T1, human VDR; settings: for VDR binding ability, rank in words: among ADTK1 through ADTK4

Compound	efficacy of VDR transcription induction, % of that of the natural hormone [1] [%]	concentration at which the highest transcription activity was shown [1]	VDR binding ability, rank in words [2]	type of activity at VDR (in words) ([1]; HEK293 luciferase assay, alone and in co-presence of 1,25(OH)2D3)	affinity for human VDR relative to the natural hormone 1,25(OH)2D3 ([2]; competition with [3H]-1,25(OH)2D3, 1,25(OH)2D3 = 100%) [%]
C=C1[C@H](O)CC(=C/C=C2\CCC[C@]3(C)[C@@H]([C@H](C)CC#C[C@H](O)CC45CC6CC(CC(C6)C4)C5)CC[C@@H]23)C[C@H]1O [ADTK3, (25R)-26-(1-Adamantyl)-1α,25-dihydroxy-2-methylene-23,23,24,24-tetradehydro-19,27-dinorvitamin D3]	72	around 10^−7 M	lowest VDR binding ability		
C=C1[C@H](O)CC(=C/C=C2\CCC[C@]3(C)[C@@H]([C@H](C)CC#C[C@@H](O)CC45CC6CC(CC(C6)C4)C5)CC[C@@H]23)C[C@H]1O [ADTK4, (25S)-26-(1-Adamantyl)-1α,25-dihydroxy-2-methylene-23,23,24,24-tetradehydro-19,27-dinorvitamin D3]	54	around 10^−7 M			
(25R)-25-(1-Adamantyl)-1α,25-dihydroxy-2-methylene-23,23,24,24-tetradehydro-19,26,27-trinorvitamin D3 [ADTK2]	66	10^−8 M	highest VDR binding activity	partial agonist	67
(25S)-25-(1-Adamantyl)-1α,25-dihydroxy-2-methylene-23,23,24,24-tetradehydro-19,26,27-trinorvitamin D3 [ADTK1]	40	around 10^−7 M			
